Experiment [1] concerns T1, Mycobacteroides abscessus subsp. massiliense MT15_1749.
T1 construct: MT15_1749
Description: microbe, parasite or virus in culture. Further details: species or system M. abscessus; Resazurin microtiter assay (REMA), fluorescence; MIC at 90% growth inhibition from Gompertz fit. As to conditions: 48 h, rough morphotype. On the procedure:
(§1) MIC values were determined using the resazurin microtiter assay (REMA). Cultures were grown to log phase (OD600 of 0.4–0.8) and diluted to OD600 of 0.005. Drugs were prepared in two-fold serial dilutions in 96-well plates with 90 μL of bacteria per well to a final volume of 100 μL. Plates were incubated at 37°C until drug-free wells were turbid (2 days for M. abscessus). Ten μL of resazurin (0.025% wt/vol) was added to each well. Once the drug-free wells turned pink (one doubling time), the fluorescence (ex/em 560nm/590nm) was measured using an Infinite F200 Tecan plate reader. Fluorescence intensities were converted to % viable cells relative to drug-free conditions and fit to the Gompertz equation using GraphPad Prism version 9. MIC values at 90% growth inhibition were determined from the nonlinear regression Gompertz equation. Next, we tested the in vitro activity of EPT against a panel of M. abscessus clinical isolates belonging to the three subspecies of the M. abscessus complex (M. abscessus, M. massiliense, and M. bolletii) with smooth and rough colony morphologies and with different drug susceptibility profiles to various antibiotics. There was no loss in activity against clinical isolates (range of 0.014–0.046 μg/mL) nor different morphologies (S2 Table). To determine the spectrum of activity of EPT, we curated a panel of various mycobacteria and representative gram-positive and gram-negative bacteria. […] Mycobacteria strains were grown in rolling [compound left out] culture at 37°C in Middlebrook 7H9 (Difco) supplemented with 10% albumin dextrose catalase (ADC), 0.2% glycerol, and 0.05% Tween 80 (7H9 complete) or on 7H10 agar plates supplemented with 10% oleic acid ADC and 0.5% glycerol at 37°C. When mentioned, the carbon source was modified from glycerol to acetate or the detergent Tween 80 was removed from the media. Bacillus cereus (clinical isolate), Corynebacterium glutamicum (ATCC 13032), Escherichia coli, and Pseudomonas aeruginosa PAO1 were grown in LB broth. HepG2 cells (ATCC HB-8065) were grown in Dulbecco’s modified Eagle’s medium (DMEM) with phenol red (from Gibco) supplemented with 10% fetal bovine serum at 37°C with 5% CO2.

For experiment [2], the system named is T2, Mycobacteroides abscessus subsp. abscessus ATCC 19977.
T2 construct: ATCC 19977
Description: microbe, parasite or virus in culture. More on the design: species or system M. abscessus; Resazurin microtiter assay (REMA), fluorescence; MIC at 90% growth inhibition from Gompertz fit. The note with it: ATCC19977, 48 h, rough morphotype. The procedure: as §1

Experiment [3] has as its system T3, Mycobacteroides abscessus subsp. abscessus MT16_6490.
T3 construct: MT16_6490
Put plainly: microbe, parasite or virus in culture. More on the design: species or system M. abscessus; Resazurin microtiter assay (REMA), fluorescence; MIC at 90% growth inhibition from Gompertz fit. The note with it: 48 h, smooth morphotype. On the procedure:
as §1

The test system of experiment [4] is T4, Mycobacteroides abscessus subsp. bolletii AV.
T4 construct: AV
Description: microbe, parasite or virus in culture. More on the design: species or system M. abscessus; Resazurin microtiter assay (REMA), fluorescence; MIC at 90% growth inhibition from Gompertz fit. As to conditions: 48 h, smooth morphotype. On the procedure: as §1

Experiment [5] concerns T5, Mycobacteroides abscessus subsp. bolletii Paris 167.
T5 construct: Paris 167
Put plainly: microbe, parasite or virus in culture. More on the design: species or system M. abscessus; Resazurin microtiter assay (REMA), fluorescence; MIC at 90% growth inhibition from Gompertz fit. The note with it: 48 h, rough morphotype. The procedure:
as §1

Experiment [6] deals with T6, Mycobacteroides abscessus subsp. abscessus MT16_1065.
T6 construct: MT16_1065
Description: microbe, parasite or virus in culture. More on the design: species or system M. abscessus; Resazurin microtiter assay (REMA), fluorescence; MIC at 90% growth inhibition from Gompertz fit. The note with it: 48 h, smooth morphotype. The procedure:
as §1

Experiment [7] concerns T7, Mycobacteroides abscessus subsp. massiliense MT15_1748.
T7 construct: MT15_1748
Description: microbe, parasite or virus in culture. Further details: species or system M. abscessus; Resazurin microtiter assay (REMA), fluorescence; MIC at 90% growth inhibition from Gompertz fit. The note with it: 48 h, rough morphotype. The procedure: as §1

For a further experiment, the system named is T8, M. tuberculosis Erdman.
T8 construct: Erdman
Put plainly: microbe, parasite or virus in culture. More on the design: Whole-cell growth inhibition, dose-response MIC (MIC90) by resazurin microtiter assay (REMA), fluorescence read-out. The note with it: Mycobacterium tuberculosis, ERDMAN.

The next experiment has as its system M. avium hominissuis. Put plainly: microbe, parasite or virus in culture. Further details: Whole-cell growth inhibition, dose-response MIC (MIC90) by resazurin microtiter assay (REMA), fluorescence read-out. The note with it: Mycobacterium avium.
The test system of a further experiment is M. avium intracellulaire. Put plainly: microbe, parasite or virus in culture. As to conditions: Mycobacterium avium. More on the design: Whole-cell growth inhibition, dose-response MIC (MIC90) by resazurin microtiter assay (REMA), fluorescence read-out.
Another experiment deals with E. coli. Put plainly: microbe, parasite or virus in culture. The note with it: Escherichia coli. More on the design: Whole-cell growth inhibition, dose-response MIC (MIC90) by resazurin microtiter assay (REMA), fluorescence read-out.
For a further experiment, the system named is T9, M. tuberculosis H37Rv.
T9 construct: H37Rv
Put plainly: microbe, parasite or virus in culture. Further details: Whole-cell growth inhibition, dose-response MIC (MIC90) by resazurin microtiter assay (REMA), fluorescence read-out. The note with it: Mycobacterium tuberculosis, H37RV.

A further experiment has as its system P. aeruginosa. Put plainly: microbe, parasite or virus in culture. Further details: Whole-cell growth inhibition, dose-response MIC (MIC90) by resazurin microtiter assay (REMA), fluorescence read-out. The note with it: Pseudomonas aeruginosa.
The test system of another experiment is B. cereus. Description: microbe, parasite or virus in culture. More on the design: Whole-cell growth inhibition, dose-response MIC (MIC90) by resazurin microtiter assay (REMA), fluorescence read-out. As to conditions: Bacillus cereus.
In another experiment the test system is C. glutamicum. Description: microbe, parasite or virus in culture. Further details: Whole-cell growth inhibition, dose-response MIC (MIC90) by resazurin microtiter assay (REMA), fluorescence read-out. As to conditions: Corynebacterium glutamicum.
For a further experiment, the system named is M. abscessus. Put plainly: microbe, parasite or virus in culture. Further details: Whole-cell growth inhibition, dose-response MIC (MIC90) by resazurin microtiter assay (REMA), fluorescence read-out. The note with it: Mycobacteroides abscessus.
In experiment [8] the target is T10, M. abscessus LeuRS editing domain (LeuRSMabs; pMabsED) (Mycobacteroides abscessus, UniProt B1MMK6).
T10 construct: gene leuS; editing domain, residues 303-499 (text on crystals prints 303-498); N-terminal His tag with TEV site, removed; synthetic codon-optimised gene, pET24a(+), E. coli BL21(DE3)
T10 sequence (B1MMK6 303-499): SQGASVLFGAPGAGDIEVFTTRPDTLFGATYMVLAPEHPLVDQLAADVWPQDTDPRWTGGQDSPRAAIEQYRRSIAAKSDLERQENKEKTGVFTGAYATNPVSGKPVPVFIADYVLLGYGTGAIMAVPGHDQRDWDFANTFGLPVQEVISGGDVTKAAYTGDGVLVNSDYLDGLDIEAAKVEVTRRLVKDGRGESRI
Put plainly: isothermal titration calorimetry. The format is binding. The source says:
isothermal titration calorimetry on M. abscessus LeuRS editing domain (LeuRSMabs; pMabsED)

Experiment [9] deals with T11, M. tuberculosis LeuRS editing domain (LeuRSMtb; pMtbED) (Mycobacterium tuberculosis, UniProt P9WFV1).
T11 construct: gene leuS
Description: isothermal titration calorimetry. Type of experiment: binding. The text has this: isothermal titration calorimetry on M. tuberculosis LeuRS editing domain (LeuRSMtb; pMtbED)
(In general: Isothermal titration calorimetry measures the heat released or taken up as one component is titrated into another.)

Among the data in publication PMC8535176, “Efficacy of epetraborole against Mycobacterium abscessus is increased with norvaline” (PLoS Pathogens, 2021) are MIC and Kd values, retold here.

≈ marks a conversion by molar mass, not a printed value. Where two headings read alike, the source gives them in different places.

T11 sequence (P9WFV1 311-512 limits assumed): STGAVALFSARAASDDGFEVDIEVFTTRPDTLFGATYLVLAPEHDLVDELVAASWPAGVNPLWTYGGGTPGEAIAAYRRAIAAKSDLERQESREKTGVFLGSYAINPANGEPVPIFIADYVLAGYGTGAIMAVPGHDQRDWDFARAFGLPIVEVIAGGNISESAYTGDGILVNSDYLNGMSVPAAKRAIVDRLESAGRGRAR

`CC[C@H]1OC(=O)[C@H](C)[C@@H](O[C@H]2C[C@@](C)(OC)[C@@H](O)[C@H](C)O2)[C@H](C)[C@@H](O[C@@H]2O[C@H](C)C[C@H](N(C)C)[C@H]2O)[C@](C)(OC)C[C@@H](C)C(=O)[C@H](C)[C@@H](O)[C@]1(C)O` [Clarithromycin]: the MIC was determined as 0.082 µg/mL (≈ 0.11 µM) in experiment [1] (read-out: MIC CLR); 0.65 µg/mL (≈ 0.869 µM) in experiment [2] (read-out: MIC CLR); 2.9 µg/mL (≈ 3.88 µM) in experiment [3] (read-out: MIC CLR); 0.15 µg/mL (≈ 0.201 µM) in experiment [4] (read-out: MIC CLR); 2.8 µg/mL (≈ 3.74 µM) in [5] (read-out: MIC CLR); 3.4 µg/mL (≈ 4.55 µM) in experiment [6] (read-out: MIC CLR). The MIC was 0.068 µg/mL (≈ 0.0909 µM) in [7] (read-out: MIC CLR); more than 1.3 µg/mL in the experiment with M. tuberculosis Erdman (read-out: MIC (µg/mL) / CLR); 0.18 µg/mL (≈ 0.241 µM) in the experiment with M. avium hominissuis (read-out: MIC (µg/mL) / CLR); 0.014 µg/mL (≈ 0.0187 µM) in the experiment with M. avium intracellulaire (read-out: MIC (µg/mL) / CLR); more than 8.2 µg/mL with E. coli (read-out: MIC (µg/mL) / CLR); more than 1.3 µg/mL in the experiment with M. tuberculosis H37Rv (read-out: MIC (µg/mL) / CLR). In addition, the MIC was more than 8.2 µg/mL in the experiment with P. aeruginosa (read-out: MIC (µg/mL) / CLR), more than 8.2 µg/mL in the experiment with B. cereus (read-out: MIC (µg/mL) / CLR), more than 8.2 µg/mL with C. glutamicum (read-out: MIC (µg/mL) / CLR) and 0.9 µg/mL (≈ 1.2 µM) with M. abscessus (read-out: MIC (µg/mL) / CLR).
Usually Kd stands for the constant that tells how readily two partners part at equilibrium. Low readings indicate a tighter complex, high ones a looser complex. As to `NC[C@H]1OB(O)c2c(OCCCO)cccc21` [epetraborole], the values for the dissociation constant (Kd) in experiment [8] and in experiment [9] were 16 ± 4 µM and 10 ± 4 µM, respectively. For the same compound, the MIC worked out at 0.014 µg/mL (≈ 0.0591 µM) in experiment [1] (read-out: MIC EPT); 0.11 µg/mL (≈ 0.464 µM) in [2] (read-out: MIC EPT); 0.03 µg/mL (≈ 0.127 µM) in [3] (read-out: MIC EPT); 0.046 µg/mL (≈ 0.194 µM) in experiment [4] (read-out: MIC EPT); 0.027 µg/mL (≈ 0.114 µM) in [5] (read-out: MIC EPT); 0.041 µg/mL (≈ 0.173 µM) in experiment [6] (read-out: MIC EPT). Moreover, the MIC was 0.022 µg/mL (≈ 0.0928 µM) in experiment [7] (read-out: MIC EPT); 0.19 µg/mL (≈ 0.801 µM) in the experiment with M. tuberculosis Erdman (read-out: MIC (µg/mL) / EPT); 2.7 µg/mL (≈ 11.4 µM) in the experiment with M. avium hominissuis (read-out: MIC (µg/mL) / EPT); 2.7 µg/mL (≈ 11.4 µM) in the experiment with M. avium intracellulaire (read-out: MIC (µg/mL) / EPT); 5.7 µg/mL (≈ 24 µM) with E. coli (read-out: MIC (µg/mL) / EPT); 0.46 µg/mL (≈ 1.94 µM) in the experiment with M. tuberculosis H37Rv (read-out: MIC (µg/mL) / EPT). For the same compound, the MIC was more than 2.7 µg/mL in the experiment with P. aeruginosa (read-out: MIC (µg/mL) / EPT), more than 2.7 µg/mL in the experiment on B. cereus (read-out: MIC (µg/mL) / EPT), 2 µg/mL (≈ 8.44 µM) with C. glutamicum (read-out: MIC (µg/mL) / EPT) and 0.063 µg/mL (≈ 0.266 µM) in the experiment on M. abscessus (read-out: MIC (µg/mL) / EPT).
